By IC50 is commonly meant the point on the concentration scale where inhibition reaches its midpoint. The low end stands for inhibition by little substance, the high end for a need for much substance.

For this assay, the system named is U87MG cells. Briefly: Cellular assay, inhibition of 2-HG production in U87MG cells. The following applies: Homo sapiens, U-87 MG, 48 h. Type of assay: cell-based. In a few lines:
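HT1080 or U87MG cells (U87MG kept with 500 ug/mL G418) seeded at 5000 cells/well and treated with compound at 0.2% final DMSO. Incubated 48 h at 37 °C. 2-HG inhibition determined by LC-MS. Viability read by CellTiter-Glo luminescence at 72 h post-dose.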

As for `N#Cc1ccnc(N2C(=O)OCC[C@H]2C(=O)N(c2cncc(F)c2)[C@H](C(=O)NC2CCC(F)(F)CC2)c2ccccc2Cl)c1` [Compound 137, (S)—N—((S)-1-(2-Chlorophenyl)-2-((4,4-difluorocyclohexyl)amino)-2-oxoethyl)-3-(4-cyano-pyridin-2-yl)-N-(5-fluoropyridin-3-yl)-2-oxo-1,3-oxazinane-4-carboxamide], the IC50 was < 100 nM.
For `N#Cc1ccnc(N2C(=O)CC[C@H]2C(=O)N(c2cccc(F)c2)[C@H](C(=O)NC2CC(F)(F)C2)c2ccccc2)c1` [Compound 138, (S)-1-(4-Cyanopyridin-2-yl)-N—((S)-2-((3,3-difluorocyclobutyl)amino)-2-oxo-1-phenylethyl)-N-(3-fluorophenyl)-5-oxopyrrolidine-2-carboxamide] the value was < 100 nM; for `N#Cc1ccnc(N2C(=O)OCC[C@H]2C(=O)N(c2cc(F)cc(F)c2)[C@H](C(=O)NC2CCC(F)(F)CC2)c2ccccc2Cl)c1` [Compound 139, (S)—N—((S)-1-(2-Chlorophenyl)-2-((4,4-difluorocyclohexyl)amino)-2-oxoethyl)-3-(4-cyanopyridin-2-yl)-N-(3,5-difluorophenyl)-2-oxo-1,3-oxazinane-4-carboxamide], < 100 nM.
For `N#Cc1ccnc(N2C(=O)CC[C@H]2C(=O)N(c2cccc(C3(O)CC3)c2)[C@H](C(=O)NC2CC(F)(F)C2)c2ccccc2Cl)c1` [Compound 140, (S)—N—((S)-1-(2-Chlorophenyl)-2-(3,3-difluorocyclobutylamino)-2-oxoethyl)-1-(4-cyanopyridin-2-yl)-N-(3-(1-hydroxycyclopropyl)phenyl)-5-oxopyrrolidine-2-carboxamide] the value was < 100 nM; for `N#Cc1ccnc(N2C(=O)CC[C@H]2C(=O)N(c2cccc3[nH]cnc23)C(C(=O)NC2CCC(F)(F)CC2)c2ccccc2Cl)c1` (stereo partly drawn) [Compound 141, (2S)—N-(1H-benzo[d]imidazol-7-yl)-N-(1-(2-chlorophenyl)-2-((4,4-difluorocyclohexyl)amino)-2-oxoethyl)-1-(4-cyanopyridin-2-yl)-5-oxopyrrolidine-2-carboxamide], < 100 nM.
The value for `N#Cc1ccnc(N2C(=O)OCC[C@H]2C(=O)N(c2cncc(F)c2)[C@H](C(=O)NC2CC(F)(F)C2)c2ccccc2Cl)c1` [Compound 143, (S)—N—((S)-1-(2-Chlorophenyl)-2-((3,3-difluorocyclobutyl)amino)-2-oxoethyl)-3-(4-cyanopyridin-2-yl)-N-(5-fluoropyridin-3-yl)-2-oxo-1,3-oxazinane-4-carboxamide] was < 100 nM; that for `N#Cc1ccnc(N2C(=O)OCC[C@H]2C(=O)N(c2cc(F)cc(F)c2)[C@H](C(=O)NC2CCC(F)(F)CC2)c2ccccc2Cl)n1` [Compound 144, (S)—N—((S)-1-(2-Chlorophenyl)-2-((4,4-difluorocyclohexyl)amino)-2-oxoethyl)-3-(4-cyanopyrimidin-2-yl)-N-(3,5-difluorophenyl)-2-oxo-1,3-oxazinane-4-carboxamide] was < 100 nM.
Regarding `CC(C)(O)c1cc(F)cc(N(C(=O)[C@@H]2COC(=O)N2c2cc(C#N)ccn2)C(C(=O)NC2CC(F)(F)C2)c2ccccc2Cl)c1` (stereo partly drawn) [Compound 145, (4S)—N-(1-(2-Chlorophenyl)-2-(3,3-difluorocyclobutylamino)-2-oxoethyl)-3-(4-cyanopyridin-2-yl)-N-(3-fluoro-5-(2-hydroxypropan-2-yl)phenyl)-2-oxooxazolidine-4-carboxamide], the half-maximal inhibitory concentration (IC50) was < 100 nM.
The value for `CC(C)(O)c1cc(F)cc(N(C(=O)[C@@H]2CCOC(=O)N2c2cc(C#N)ccn2)[C@H](C(=O)NC2CC(F)(F)C2)c2ccccc2Cl)c1` [Compound 146, (S)—N—((S)-1-(2-Chlorophenyl)-2-(3,3-difluorocyclobutylamino)-2-oxoethyl)-3-(4-cyanopyridin-2-yl)-N-(3-fluoro-5-(2-hydroxypropan-2-yl)phenyl)-2-oxo-1,3-oxazinane-4-carboxamide] was < 100 nM; that for `N#Cc1ccnc(N2C(=O)CC[C@H]2C(=O)N(c2cncc(F)c2)[C@H](C(=O)NC2CC(F)(F)C2)c2ccccc2)c1` [Compound 147, (S)-1-(4-Cyanopyridin-2-yl)-N—((S)-2-((3,3-difluorocyclobutyl)amino)-2-oxo-1-phenylethyl)-N-(5-fluoropyridin-3-yl)-5-oxopyrrolidine-2-carboxamide] was < 100 nM; that for `N#Cc1ccnc(N2C(=O)CC[C@H]2C(=O)N(c2cncc(F)c2)[C@H](C(=O)NC2CC(F)(F)C2)c2ccccc2F)c1` [Compound 148, (S)-1-(4-Cyanopyridin-2-yl)-N—((S)-2-((3,3-difluorocyclobutyl)amino)-1-(2-fluorophenyl)-2-oxoethyl)-N-(5-fluoropyridin-3-yl)-5-oxopyrrolidine-2-carboxamide] was < 100 nM.
The value for `N#Cc1ccnc(N2C(=O)CC[C@H]2C(=O)N(c2cccc(F)c2)[C@H](C(=O)NC2CC(F)(F)C2)c2ccccc2F)c1` [Compound 149, (S)-1-(4-Cyanopyridin-2-yl)-N—((S)-2-((3,3-difluorocyclobutyl)amino)-1-(2-fluorophenyl)-2-oxoethyl)-N-(3-fluorophenyl)-5-oxopyrrolidine-2-carboxamide] was < 100 nM; that for `CC(C)(O)c1cc(F)cc(N(C(=O)[C@@H]2CCC(=O)N2c2cc(C#N)ccn2)[C@H](C(=O)NC2CC(F)(F)C2)c2ccccc2Cl)c1` [Compound 150, (S)—N—((S)-1-(2-Chlorophenyl)-2-(3,3-difluorocyclobutylamino)-2-oxoethyl)-1-(4-cyanopyridin-2-yl)-N-(3-fluoro-5-(2-hydroxypropan-2-yl)phenyl)-5-oxopyrrolidine-2-carboxamide] was < 100 nM; that for `N#Cc1ccnc(N2C(=O)[C@H](F)C[C@H]2C(=O)N(c2cccc(F)c2)[C@H](C(=O)NC2CCC(F)(F)CC2)c2ccccc2Cl)c1` [Compound 151, (2S,4R)—N—((S)-1-(2-Chlorophenyl)-2-((4,4-difluorocyclohexyl)amino)-2-oxoethyl)-1-(4-cyanopyridin-2-yl)-4-fluoro-N-(3-fluorophenyl)-5-oxopyrrolidine-2-carboxamide] was < 100 nM.
The value for `N#Cc1ccnc(N2C(=O)CC[C@H]2C(=O)N(c2cccc3[nH]ncc23)C(C(=O)NC2CC(F)(F)C2)c2ccccc2Cl)c1` (stereo partly drawn) [Compound 152, (2S)—N-(1-(2-Chlorophenyl)-2-((3,3-difluorocyclobutyl)amino)-2-oxoethyl)-1-(4-cyanopyridin-2-yl)-N-(1H-indazol-4-yl)-5-oxopyrrolidine-2-carboxamide] was < 100 nM.
For `N#Cc1cc(C#N)cc(N(C(=O)[C@@H]2CCC(=O)N2c2cc(C#N)ccn2)[C@H](C(=O)NC2CC(F)(F)C2)c2ccccc2Cl)c1` [Compound 153, (S)—N—((S)-1-(2-Chlorophenyl)-2-((3,3-difluorocyclobutyl)amino)-2-oxoethyl)-1-(4-cyanopyridin-2-yl)-N-(3,5-dicyanophenyl)-5-oxopyrrolidine-2-carboxamide], the half-inhibitory concentration (IC50) was < 100 nM.
For `N#Cc1ccnc(N2C(=O)OCC[C@H]2C(=O)N(c2cc(F)cc(F)c2)[C@H](C(=O)NC2CC(F)(F)C2)c2ccccc2Cl)n1` [Compound 154, (S)—N—((S)-1-(2-Chlorophenyl)-2-((3,3-difluorocyclobutyl)amino)-2-oxoethyl)-3-(4-cyanopyrimidin-2-yl)-N-(3,5-difluorophenyl)-2-oxo-1,3-oxazinane-4-carboxamide] the value was < 100 nM; for `CN(C)S(=O)(=O)c1cccc(N(C(=O)[C@@H]2CCC(=O)N2c2cc(C#N)ccn2)[C@H](C(=O)NC2CC(F)(F)C2)c2ccccc2Cl)c1` [Compound 156, (S)—N—((S)-1-(2-Chlorophenyl)-2-(3,3-difluorocyclobutylamino)-2-oxoethyl)-1-(4-cyanopyridin-2-yl)-N-(3-(N,N-dimethylsulfamoyl)phenyl)-5-oxopyrrolidine-2-carboxamide], < 100 nM; for `CNS(=O)(=O)c1cccc(N(C(=O)[C@@H]2CCC(=O)N2c2cc(C#N)ccn2)[C@H](C(=O)NC2CC(F)(F)C2)c2ccccc2Cl)c1` [Compound 157], < 100 nM.
`N#Cc1ccnc(N2C(=O)CC[C@H]2C(=O)N(c2cc(F)cc(S(N)(=O)=O)c2)[C@H](C(=O)NC2CC(F)(F)C2)c2ccccc2Cl)c1` [Compound 158, (2S)—N-(1-(2-chlorophenyl)-2-(3,3-difluorocyclobutylamino)-2-oxo-ethyl)-1-(4-cyanopyridin-2-yl)-N-(3-fluoro-5-sulfamoylphenyl)-5-oxopyrrolidine-2-carboxamide]: the IC50 was < 100 nM.
The value for `CS(=O)(=O)Nc1cccc(N(C(=O)[C@@H]2CCC(=O)N2c2cc(C#N)ccn2)[C@H](C(=O)NC2CC(F)(F)C2)c2ccccc2Cl)c1` [Compound 159, (S)—N—((S)-1-(2-Chlorophenyl)-2-(3,3-difluorocyclobutylamino)-2-oxoethyl)-1-(4-cyanopyridin-2-yl)-N-(3-(methylsulfonamido)phenyl)-5-oxopyrrolidine-2-carboxamide] was < 100 nM; that for `N#Cc1ccnc(N2C(=O)CC[C@H]2C(=O)N(c2cccc(CCO)c2)[C@H](C(=O)NC2CC(F)(F)C2)c2ccccc2Cl)c1` [Compound 160, (S)—N—((S)-1-(2-Chlorophenyl)-2-((3,3-difluorocyclobutyl)amino)-2-oxoethyl)-1-(4-cyanopyridin-2-yl)-N-(3-(2-hydroxyethyl)phenyl)-5-oxopyrrolidine-2-carboxamide] was < 100 nM; that for `CN(C)c1cccc(N(C(=O)[C@@H]2CCC(=O)N2c2cc(C#N)ccn2)[C@H](C(=O)NC2CC(F)(F)C2)c2ccccc2Cl)c1` [Compound 161, (S)—N—((S)-1-(2-Chlorophenyl)-2-(3,3-difluorocyclobutylamino)-2-oxoethyl)-1-(4-cyanopyridin-2-yl)-N-(3-(dimethylamino)phenyl)-5-oxopyrrolidine-2-carboxamide] was < 100 nM.

The values are drawn from patent US10640534B2 (Agios Pharmaceuticals, Inc., priority 2012, dated 2020).
